In patent publication US9321764B2, “Dihydro-pyrrolopyridinone inhibitors” (AbbVie Inc., priority 2013, dated 2016):

Key:
BRD4 (BDI_K57-E168) = target: T1, BRD4 (BDI_K57-E168) (Homo sapiens, UniProt O60885); assay: TR-FRET bromodomain binding assay, first bromodomain of BRD4; conditions: His-tagged BD1, 100 nM Alexa647 probe; TR-FRET protocol A-E given per row
T1 construct: BD1: amino acids K57-E168; made in house
Method in brief: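 Ki values come from IC50s (4-parameter logistic) corrected for probe Kd and concentration, normalised to no-compound and 1 μM unlabelled probe controls. Probe displacement by TR-FRET used 8 nM BD1 (K57-E168), 100 nM Alexa647 probe, 1 nM Eu-anti-His, 20 mM phosphate pH 6.0, 2% DMSO, 1 h, room temperature.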

BRD4 (BDII_E352-M457) = target: T2, BRD4 (BDII_E352-M457) (Homo sapiens, UniProt O60885); assay: TR-FRET bromodomain binding assay, second bromodomain of BRD4; conditions: His-tagged BD2, 30 nM Alexa647 probe; TR-FRET protocol A-E given per row
T2 construct: proliferation; Protocol; made in house
Method in brief: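 His-tagged BRD4 BD2 ([…]) competed against an Alexa647-labelled BET-inhibitor probe in TR-FRET. Buffer was 20 mM sodium phosphate pH 6.0, 50 mM NaCl, 1 mM EDTA, 0.01% Triton X-100, 1 mM DTT, with method D DMSO series of 2.5 mM–800 nM (stock range). IC50 from 4-parameter fit, Ki from probe Kd and concentration.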

[1] = system: breast cancer cell line MX-1; assay: MX-1 cell line proliferation assay; type: cell-based; conditions: Homo sapiens, MX1, 72 h, MX-1 cells, 3-day proliferation assay, Cell Titer Glo; read-out: Cellular proliferation EC50
Protocol: The impact of compounds of the Examples on cancer cell proliferation was determined using the breast cancer cell line MX-1 (ATCC) in a 3-day proliferation assay and the data are reported in Table 1. MX-1 cells were maintained in RPMI 1640 medium (Sigma) supplemented with 10% FBS at 37° C. and an atmosphere of 5% CO2. For compound testing, MX-1 cells were plated in 96-well black bottom plates at a density of 5000 cells/well in 90 μL of culture media and incubated at 37° overnight to allow cell adhesion and spreading. Compound dilution series were prepared in DMSO via a 3-fold serial dilution from 3 mM to 0.1 μM. The DMSO dilution series were then diluted 1:100 in phosphate buffered saline, and 10 μL of the resulted solution were added to the appropriate wells of the MX-1 cell plate. The final compound concentrations in the wells were 3, 1, 0.3, 0.1, 0.03, 0.01, 0.003, 0.001, 0.0003 and 0.0001 μM.
Luminescence readings from the Cell Titer Glo assay were normalized to the DMSO treated cells and analyzed using the GraphPad Prism software with sigmoidal curve fitting to obtain EC50s. The minimum significant ratio (MSR) was determined to evaluate assay reproducibility (Eastwood et al., (2006) J Biomol Screen, 11: 253-261).

Row | SMILES | Ki (BRD4 (BDI_K57-E168)) | Ki (BRD4 (BDII_E352-M457)) | EC50 [1]
1 | CCS(=O)(=O)C(C)c1ccc(Oc2ccc(F)cc2F)c(-c2cn(C)c3c(=O)[nH]ccc23)c1 (stereo not drawn) [Example 55, 3-{2-(2,4-difluorophenoxy)-5-[1-(ethylsulfonyl)ethyl]phenyl}-1-methyl-1,6-dihydro-7H-pyrrolo[2,3-c]pyridin-7-one] | 4.2 nM | 9.9 nM | 29 nM
2 | Cn1cc(-c2cc(CS(=O)(=O)c3ccccc3)ccc2Oc2ccc(F)cc2F)c2cc[nH]c(=O)c21 [Example 58, 3-{2-(2,4-difluorophenoxy)-5-[(phenylsulfonyl)methyl]phenyl}-1-methyl-1,6-dihydro-7H-pyrrolo[2,3-c]pyridin-7-one] | 72 nM | 88 nM | 57 nM
3 | Cn1cc(-c2cc(S(C)(=O)=O)ccc2Oc2ccc(F)cc2)c2cc[nH]c(=O)c21 [Example 61, 3-[2-(4-fluorophenoxy)-5-(methylsulfonyl)phenyl]-1-methyl-1,6-dihydro-7H-pyrrolo[2,3-c]pyridin-7-one] | 18 nM | 43 nM | 125 nM
4 | Cn1cc(-c2cc(S(C)(=O)=O)ccc2Oc2ccc3ccccc3c2)c2cc[nH]c(=O)c21 [Example 63, 1-methyl-3-[5-(methylsulfonyl)-2-(naphthalen-2-yloxy)phenyl]-1,6-dihydro-7H-pyrrolo[2,3-c]pyridin-7-one] | 74 nM | 66 nM | 187 nM
5 | Cn1cc(-c2cc(S(C)(=O)=O)ccc2OCC(F)(F)C(F)(F)F)c2cc[nH]c(=O)c21 [Example 64, 1-methyl-3-[5-(methylsulfonyl)-2-(2,2,3,3,3-pentafluoropropoxy)phenyl]-1,6-dihydro-7H-pyrrolo[2,3-c]pyridin-7-one] | 36 nM | 57 nM | 84 nM
6 | CC(=O)N1CCC(Oc2ccc(S(C)(=O)=O)cc2-c2cn(C)c3c(=O)[nH]ccc23)CC1 [Example 67, 3-{2-[(1-acetylpiperidin-4-yl)oxy]-5-(methylsulfonyl)phenyl}-1-methyl-1,6-dihydro-7H-pyrrolo[2,3-c]pyridin-7-one] | 45 nM | 1380 nM | > 3000 nM
7 | Cn1cc(-c2cc(S(C)(=O)=O)ccc2NCC2CCCC2)c2cc[nH]c(=O)c21 [Example 68, 3-{2-[(cyclopentylmethyl)amino]-5-(methylsulfonyl)phenyl}-1-methyl-1,6-dihydro-7H-pyrrolo[2,3-c]pyridin-7-one] | 103 nM | 124 nM | 38 nM
8 | Cn1cc(-c2cc(S(C)(=O)=O)ccc2NCC2C[C@@H]3CC[C@H]2C3)c2cc[nH]c(=O)c21 (stereo partly drawn) [Example 71, 3-[2-{[(1S,4R)-bicyclo[2.2.1]hept-2-ylmethyl]amino}-5-(methylsulfonyl)phenyl]-1-methyl-1,6-dihydro-7H-pyrrolo[2,3-c]pyridin-7-one] | 197 nM | 285 nM | 255 nM
9 | CCS(=O)(=O)c1ccc(Oc2ccc(C)cc2Cl)c(-c2cn(C)c3c(=O)[nH]ccc23)c1 [Example 73, 3-[2-(2-chloro-4-methylphenoxy)-5-(ethylsulfonyl)phenyl]-1-methyl-1,6-dihydro-7H-pyrrolo[2,3-c]pyridin-7-one] | 43 nM | 21 nM | 194 nM
10 | CCS(=O)(=O)c1ccc(Oc2ccc(C#N)cc2)c(-c2cn(C)c3c(=O)[nH]ccc23)c1 [Example 78, 4-[4-(ethylsulfonyl)-2-(1-methyl-7-oxo-6,7-dihydro-1H-pyrrolo[2,3-c]pyridin-3-yl)phenoxy]benzonitrile] | 20 nM | 73 nM | 88 nM
11 | CCS(=O)(=O)c1ccc(Oc2ccccc2C#N)c(-c2cn(C)c3c(=O)[nH]ccc23)c1 [Example 83, 2-[4-(ethylsulfonyl)-2-(1-methyl-7-oxo-6,7-dihydro-1H-pyrrolo[2,3-c]pyridin-3-yl)phenoxy]benzonitrile] | 43 nM | 46 nM | 100 nM
12 | CCS(=O)(=O)c1ccc(Oc2c(C)nn(C)c2C)c(-c2cn(C)c3c(=O)[nH]ccc23)c1 [Example 90, 3-{5-(ethylsulfonyl)-2-[(1,3,5-trimethyl-1H-pyrazol-4-yl)oxy]phenyl}-1-methyl-1,6-dihydro-7H-pyrrolo[2,3-c]pyridin-7-one] | 54 nM | 39 nM | 96 nM
13 | Cn1cc(-c2cc(CS(C)(=O)=O)ccc2Oc2ccc(F)cc2F)c2cc(Cl)[nH]c(=O)c21 [Example 91, 5-chloro-3-{2-(2,4-difluorophenoxy)-5-[(methylsulfonyl)methyl]phenyl}-1-methyl-1,6-dihydro-7H-pyrrolo[2,3-c]pyridin-7-one] | 5.4 nM | 9.5 nM | 8 nM

Other lines, results leading:

Row | Ki (BRD4 (BDI_K57-E168)) | Ki (BRD4 (BDII_E352-M457)) | EC50 [1] | SMILES
14 | 1.7 nM | 1.8 nM | 8 nM | CCc1cc2c(-c3cc(CS(C)(=O)=O)ccc3Oc3ccc(F)cc3F)cn(C)c2c(=O)[nH]1 [Example 92, 3-{2-(2,4-difluorophenoxy)-5-[(methylsulfonyl)methyl]phenyl}-5-ethyl-1-methyl-1,6-dihydro-7H-pyrrolo[2,3-c]pyridin-7-one]
15 | 4.2 nM | 2.1 nM | 8 nM | Cn1cc(-c2cc(CS(=O)(=O)N3CCOCC3)ccc2Oc2ccc(F)cc2F)c2cc[nH]c(=O)c21 [Example 95, 3-{2-(2,4-difluorophenoxy)-5-[(morpholin-4-ylsulfonyl)methyl]phenyl}-1-methyl-1,6-dihydro-7H-pyrrolo[2,3-c]pyridin-7-one]
16 | 6.9 nM | 11 nM | 15 nM | Cn1cc(-c2cc(CS(N)(=O)=O)ccc2Oc2ccc(F)cc2F)c2cc[nH]c(=O)c21 [Example 96, 1-[4-(2,4-difluorophenoxy)-3-(1-methyl-7-oxo-6,7-dihydro-1H-pyrrolo[2,3-c]pyridin-3-yl)phenyl]methanesulfonamide]
17 | 158 nM | 81 nM | 398 nM | Cn1cc(-c2cc(S(=O)(=O)N3CCc4ccccc43)ccc2OCC2CC2)c2cc[nH]c(=O)c21 [Example 97, 3-[2-(cyclopropylmethoxy)-5-(2,3-dihydro-1H-indol-1-ylsulfonyl)phenyl]-1-methyl-1,6-dihydro-7H-pyrrolo[2,3-c]pyridin-7-one]
18 | 4.1 nM | 4.8 nM | 9 nM | CNS(=O)(=O)Cc1ccc(Oc2ccc(F)cc2F)c(-c2cn(C)c3c(=O)[nH]ccc23)c1 [Example 100, 1-[4-(2,4-difluorophenoxy)-3-(1-methyl-7-oxo-6,7-dihydro-1H-pyrrolo[2,3-c]pyridin-3-yl)phenyl]-N-methylmethanesulfonamide]
19 | 2.2 nM | 2.5 nM | 5 nM | CN(C)S(=O)(=O)Cc1ccc(Oc2ccc(F)cc2F)c(-c2cn(C)c3c(=O)[nH]ccc23)c1 [Example 101, 1-[4-(2,4-difluorophenoxy)-3-(1-methyl-7-oxo-6,7-dihydro-1H-pyrrolo[2,3-c]pyridin-3-yl)phenyl]-N,N-dimethylmethanesulfonamide]
20 | 95 nM | 81 nM | 739 nM | Cn1cc(-c2cc(CS(=O)(=O)NC3CCCCC3)ccc2Oc2ccc(F)cc2F)c2cc[nH]c(=O)c21 [Example 102, N-cyclohexyl-1-[4-(2,4-difluorophenoxy)-3-(1-methyl-7-oxo-6,7-dihydro-1H-pyrrolo[2,3-c]pyridin-3-yl)phenyl]methanesulfonamide]
21 | 8.4 nM | 4.9 nM | 89 nM | Cn1cc(-c2cc(CS(=O)(=O)N3CCCCC3)ccc2Oc2ccc(F)cc2F)c2cc[nH]c(=O)c21 [Example 103, 3-{2-(2,4-difluorophenoxy)-5-[(piperidin-1-ylsulfonyl)methyl]phenyl}-1-methyl-1,6-dihydro-7H-pyrrolo[2,3-c]pyridin-7-one]
22 | 72 nM | 107 nM | > 3000 nM | Cn1cc(-c2cc(CS(=O)(=O)Nc3nccs3)ccc2Oc2ccc(F)cc2F)c2cc[nH]c(=O)c21 [Example 104, 1-[4-(2,4-difluorophenoxy)-3-(1-methyl-7-oxo-6,7-dihydro-1H-pyrrolo[2,3-c]pyridin-3-yl)phenyl]-N-(1,3-thiazol-2-yl)methanesulfonamide]
23 | 528 nM | 329 nM | 806 nM | Cn1cc(-c2cc(CN3CCNCC3)ccc2Oc2ccc(F)cc2F)c2cc[nH]c(=O)c21 [Example 105, 3-[2-(2,4-difluorophenoxy)-5-(piperazin-1-ylmethyl)phenyl]-1-methyl-1,6-dihydro-7H-pyrrolo[2,3-c]pyridin-7-one]
